Test results from patent US6395906B1, “Intermediates to pesticidal 1-arylpyrazoles” (Rhone-Poulenc Inc., priority 1995, dated 2002).

Tests used:
Format in all cases: in vivo
[1] = tested on: black cutworm (Agrotis ipsilon); assay: Black cutworm systemic test (BCW-Sys); settings: soil drench 10.0 ppm, corn seedling clipped ten days after treatment; mortality 4 days after infestation
From the text: (§1) For cotton aphid systemic tests and black cutwork—systemic tests, the water-acetone-DMF-emulsifier solution was adjusted for a treatment rate of 10.0 ppm soil concentration.
Black cutworm—systemic test (BCW-Sys): Corn seeds were placed on top of the soil surface in pots containing moist soil. The test compound solution was applied as a drench to the top of the soil and seeds for a treatment rate equivalent to 10.0 ppm soil concentration. As an untreated control, an aliquot of water-acetone-DMF-emulsifier solution containing no test compound was applied in a similar manner. The soil surface and seeds were covered with moist soil. The pots were held in the greenhouse for the duration of the bioassay. Ten days after treatment, the corn seedling was clipped and placed in a plastic cup with 2 late second to early third instar black cutworm larvae. Mortality was assessed visually 4 days after infestation.

[2] = tested on: greenbug aphid (Schizaphis graminum); assay: Greenbug aphid systemic test (GA-Sys); settings: soil drench 10 or 25 ppm, sorghum; aphid control rated one and three days after infestation
From the text: For the greenbug aphid systemic test, the water-acetone-DMF-emulsifier solution was adjusted for a treatment rate of 10 or 25 ppm soil concentration.
Greenburg aphid—systemic test (GA-Sys): Sorghum seeds were placed on top of the soil surface in pots containing moist soil. The test compound solution was applied as a drench to the top of the soil and seeds for a treatment rate equivalent to 10 or 25 ppm soil concentration. As an untreated control, an aliquot of a water-acetone-DMF-emulsifier solution containing no test compound was applied in a similar manner. The soil surface and seeds were covered with moist soil. The pots were held in the greenhouse for the duration of the bioassay. When the sorghum seeds germinated, greenbug aphids were sprinkled evenly over the sorghum pots to about 50 aphids per pot. The plants were rated for aphid control one and three days after infestation.

[3] = tested on: southern root-knot nematode (Meloidogyne incognita); assay: Southern root-knot nematode (SRKN) soil test; settings: soil treatment 23 kg/ha; tomato or cotton root galling rated after 2-3 weeks
Experimental: (§2) For the tick, aphids, souther armyworm, tobacco budworm, house fly, Mexican bean beetle, American cockroach, cat flea, souther corn rootworm, western corn rootworm, black cutworm, and southern root-knot nematode, a solution or suspension was prepared by adding the test compound to a solution of dimethylformamide, acetone, emulsifiers which are alkylaryl polyether alcohols organic sulfonates, and water. The result was a 100 or 500 ppm concentration of the test compound.
For the southern root-knot nematode tests, the water-acetone-DMF-emulsifier solution was adjusted for a treatment rate of 23 kg/ha soil concentration.
Southern root-knot nematode (SRKN): Eggs and second stage juveniles (J2s) of southern root-knot nematodes were obtained from infected roots of reared tomato plants. Pots containing moist soil were treated with the test compound solution for a treatment rate of 23 kg/ha. As an untreated control, an aliquot of a water-acetone-DMF-emulsifier solution containing no test compound was applied in a similar manner. Immediately after treatment, eggs or J2s of southern root-knot nematode were added to the treated soil. For test with cotton, the seeds were placed on top of the soil the day of treatment and inoculation. For the tests with tomato, the seedlings were transplanted in the pot three days after treatment. The pots were kept in the greenhouse for 2-3 weeks. At the termination of the test, roots of the tomato or cotton seedlings were evaluated for galling on a rating scale from 1 to 5 with one equal to severe galling, relative to untreated control, and five to no galling, i.e., complete control.

[4] = tested on: tobacco budworm (Heliothis virescens); assay: Tobacco budworm (TBW) treated cotton leaf test; settings: cotton leaves, 100 ppm; second instar larvae, five days
Experimental: as §2
Tobacco budworm (TBW): Cotton leaves were wet to runoff with the 100 ppm test compound formulation. As an untreated control, a water-acetone-DMF-emulsifier solution containing no test compound was also applied wet to runoff to cotton leaves. Ten randomly selected second instar tobacco budworm larvae were introduced into plastic containers in which moist dental wicks and the dry treated leaves had been placed. The cups were closed and held for five days. Larvae which were unable to move the length of the body, even upon stimulation by prodding, were considered dead.

[5] = tested on: cotton aphid (Aphis gossypii); assay: Cotton aphid (CA) foliar spray test; settings: cotton plants wet to runoff, 100 or 500 ppm; dead aphids counted after three days
Experimental: as §2
Buckthorn aphid (BA) or cotton aphid (CA): Adult and nymphal stages of buckthorn or cotton aphid were reared on potted dwarf nasturtium or cotton plants, respectively. Plants infested with 100-150 aphids were wet to runoff with the 100 or 500 ppm test compound formulation. As an untreated control, a water-acetone-DMF-emulsifier solution containing no test compound was also applied to runoff to infested plants. The treated plants were stored for one day for buckthorn aphid and three days for cotton aphid, after which the dead aphids were counted.

[6] = tested on: southern corn rootworm (Diabrotica undecimpunctata howardi); assay: Southern corn rootworm (SCRW) soil test; settings: soil concentration 2.5, 5, 6.75 or 10 ppm; mortality eight days after infestation
Experimental: as §2
For southern corn rootworm and black cutworm tests, the water-acetone-DMF-emulsifier solution was adjusted for a treatment rate of 2.5, 5, 6.75 or 10 ppm.
Southern corn rootworm (SCRW), Black cutworm (BCW): Corn seeds were placed in a glass jar and covered with dry sandy loam soil. The 500 ppm test formulation was applied for a soil concentration of 2.5, 5, 6.75 or 10 ppm. As an untreated control, an aliquot of a water-acetone-DMF-emulsifier solution containing no test compound was applied in a similar manner. After incubating covered for 24 hours, the soil was mixed and inoculated with approximately 25 southern corn rootworm eggs. Following an additional 48 hours, two late second to early third instar black cutworms were placed in the jar with a portion of insect diet. Eight days after infestation, mortality was assessed visually for cutworm and by Berlese funnel extraction for rootworm.

[7] = tested on: western corn rootworm (Diabrotica virgifera virgifera); assay: Western corn rootworm (WCRW) soil test; settings: soil concentration 0.15 or 0.5 ppm; neonate larvae, mortality six days after infestation
Experimental: as §2
For the western corn rootworm test, the water-acetone-DMF-emulsifier solution was adjusted for a treatment rate of 0.15 or 0.5 ppm.
Western corn rootworm (WCRW): The 500 ppm test formulation was applied to dry sandy loam soil contained in a glass jar for a soil concentration of 0.15 or 0.5 ppm. As an untreated control, an aliquot of a water-acetone-DMF-emulsifier solution containing no test compound was applied in a similar manner. After incubating covered for 24 hours, the soil was mixed and four germinated corn seedlings were added to the jar. Ten neonate western corn rootworm larvae were placed in the jar. Six days after infestation, mortality was assessed by Berlese funnel extraction.

[8] = tested on: southern armyworm (Spodoptera eridania); assay: Southern armyworm (SAW) treated bean leaf test; settings: bean leaves, 100 or 500 ppm; second instar larvae, five days
Experimental: as §2
(§3) Southern armyworm (SAW), Mexican bean beetle (MBB): Bean leaves were wet to runoff with the 100 or 500 ppm test compound formulation. As an untreated control, a water-acetone-DMF-emulsifier solution containing no test compound was also applied wet to runoff to bean leaves. Five or six randomly selected second instar southern armyworn larvae or Mexican bean bettle larvae were introduced into each plastic container with the dry treated leaves. The container was closed and held for five days. Larvae which were unable to move the length of the body, even upon stimulation by prodding, were considered dead.

[9] = tested on: house fly (Musca domestica); assay: House fly (HF) bait test; settings: sucrose bait, 100 or 250 ppm; adult flies, mortality after 24 hours
Experimental: as §2
For house fly tests, the water-acetone-DMF-emulsifier solution was adjusted with a 20% by weight aqueous solution of sucrose to provide a final 100 or 250 ppm concentration of the test compound.
House fly (HF): Four to six day old adult house flies were used. The files were immobilized by anesthetizing with carbon dioxide. A bait cup was prepared which contained the 100 or 250 ppm test compound formulation/sucrose solution and one or two absorbent cotton pad(s). As an untreated control, a water-acetone-DMF-emulsifier-sucrose solution containing no test compound was applied in a similar manner. The bait cup was introduced inside the cage prior to admitting 12-25 anesthetized flies. Mortality was assessed after 24 hours.

[10] = tested on: American cockroach (Periplaneta americana); assay: American cockroach (ACR) treated food pellet test; settings: food pellets with 500 ppm formulation; nymphs, contact and feeding mortality 1 and 5 days after infestation
Experimental: as §2
American cockroach (ACR): Cat food or dog food pellets were added to jars containing 1-2 mls of the 500 ppm test formulation. As an untreated control, an aliquot of a water-acetone-DMF-emulsifier solution containing no test compound was applied in a similar manner. After 48 hours, roach nymphs were added to the jar. Contact and feeding mortally was assessed 1 and 5 days after infestation.

[11] = tested on: cotton aphid (Aphis gossypii); assay: Cotton aphid systemic test (CA-Sys); settings: soil drench 10.0 ppm, aphid control rated three and six days after infestation
From the text: as §1
Cotton aphid—systemic test (CA-Sys): Cotton seeds were placed on top of the soil surface in pots containing moist soil. The test compound solution was applied as a drench to the top of the soil and seeds for a treatment rate equivalent to 10.0 ppm soil concentration. As an untreated control, an aliquot of a water-acetone-DMF-emulsifier solution containing no test compound was applied in a similar manner. The soil surface and seeds were covered with moist soil. The pots were held in the greenhouse for the duration of the bioassay. When the cotyledons of the cotton were expanded (approximately 7 days after planting), the cotton was infested with approximately 25 cotton aphids (mixed population). The plant were rated for aphid control three and six days after infestation.

[12] = tested on: Mexican bean beetle (Epilachna varivestis); assay: Mexican bean beetle (MBB) treated bean leaf test; settings: bean leaves, 100 or 500 ppm; second instar larvae, five days
Experimental: as §2, §3

## CC(O)c1c(SC(F)(F)F)c(C#N)nn1-c1c(Cl)cc(C(F)(F)F)cc1Cl (centres unmarked) [Compound 8, 3-Cyano-1-(2,6-dichloro-4-trifluoromethylphenyl)-5-(1-hydroxy)ethyl-4-trifluoromethylthiopyrazole]
[1]
  BCW-Sys: + (active against 1 or more insects described above up to 100% mortality. This activity is indicated by a “+”)

## N#Cc1nn(-c2c(Cl)cc(C(F)(F)F)cc2Cl)c(CO)c1[S+]([O-])C(F)(F)F (centres unmarked) [Compound 12, 3-Cyano-1-(2,6-dichloro-4-trifluoromethylphenyl)-5-(hydroxy)methyl-4-trifluoromethylsulfinylpyrazole]
[1]
  BCW-Sys: + (active against 1 or more insects described above up to 100% mortality. This activity is indicated by a “+”)
[2]
  GA-Sys: + (active against 1 or more insects described above up to 100% mortality. This activity is indicated by a “+”)
[3]
  SRKN: + (active against 1 or more insects described above up to 100% mortality. This activity is indicated by a “+”)

## COC(C#N)c1c([S+]([O-])C(F)(F)F)c(C#N)nn1-c1c(Cl)cc(C(F)(F)F)cc1Cl (centres unmarked) [Compound 14, 3-Cyano-5-{(1-cyano-1-methoxy)methyl}-1-(2,6-dichloro-4-trifluoromethylphenyl)-4-trifluoromethylsulfinylpyrazole]
[4]
  TBW: + (active against 1 or more insects described above up to 100% mortality. This activity is indicated by a “+”)
[5]
  CA: + (active against 1 or more insects described above up to 100% mortality. This activity is indicated by a “+”)
[6]
  SCRW: + (active against 1 or more insects described above up to 100% mortality. This activity is indicated by a “+”)
[7]
  WCRW: + (active against 1 or more insects described above up to 100% mortality. This activity is indicated by a “+”)
[8]
  SAW: + (active against 1 or more insects described above up to 100% mortality. This activity is indicated by a “+”)
[9]
  HF: + (active against 1 or more insects described above up to 100% mortality. This activity is indicated by a “+”)
[10]
  ACR: + (active against 1 or more insects described above up to 100% mortality. This activity is indicated by a “+”)
[3]
  SRKN: + (active against 1 or more insects described above up to 100% mortality. This activity is indicated by a “+”)

## N#Cc1nn(-c2c(Cl)cc(C(F)(F)F)cc2Cl)c(C(O)C(F)(F)F)c1SC(F)(F)F (centres unmarked) [Compound 17, 3-Cyano-1-(2,6-dichloro-4-trifluoromethylphenyl)-5-(1-hydroxy-2,2,2-trifluoroethyl)-4-trifluoromethylthiopyrazole]
[11]
  CA-Sys: + (active against 1 or more insects described above up to 100% mortality. This activity is indicated by a “+”)
[7]
  WCRW: + (active against 1 or more insects described above up to 100% mortality. This activity is indicated by a “+”)
[10]
  ACR: + (active against 1 or more insects described above up to 100% mortality. This activity is indicated by a “+”)

## C=C(OC(C)=O)c1c(S(=O)(=O)C(F)(F)F)c(C#N)nn1-c1c(Cl)cc(C(F)(F)F)cc1Cl [Compound 21, 3-Cyano-1-(2,6-dichloro-4-trifluoromethylphenyl)-5-(1-acetoxyethenyl)-4-trifluoromethylsulfonylpyrazole]
[4]
  TBW: + (active against 1 or more insects described above up to 100% mortality. This activity is indicated by a “+”)
[5]
  CA: + (active against 1 or more insects described above up to 100% mortality. This activity is indicated by a “+”)
[7]
  WCRW: + (active against 1 or more insects described above up to 100% mortality. This activity is indicated by a “+”)
[2]
  GA-Sys: + (active against 1 or more insects described above up to 100% mortality. This activity is indicated by a “+”)
[12]
  MBB: + (active against 1 or more insects described above up to 100% mortality. This activity is indicated by a “+”)
